One assay has as its system tumor cells. Put plainly: Tumor cell cytotoxicity, MTT assay. The class given is cell-based. The conditions noted are these: tumor cells treated for 24 hours. On the procedure: Exponentially growing tumor cells were treated with the following compounds for 24 hours. Insoluble compounds were formulated in a small amount (0.3%) of DMSO for biological evaluation. Cell viability was determined by the calorimetric MTT assay using 3(4,5-dimethylthiazol-2-yl)-2,5-diphenyl-2H-tetrazolium bromide according to well-established procedures (see Berridge, et al. (1996) for a general protocol of this type of assay).
In general terms: Tetrazolium dyes change colour on reduction, which living cells bring about.

The target in assay [1] is T1, Horseradish peroxidase (HRP) (Armoracia rusticana, UniProt P00433).
T1 construct: purchased Sigma P6782
T1 sequence (P00433 31-338 limits assumed): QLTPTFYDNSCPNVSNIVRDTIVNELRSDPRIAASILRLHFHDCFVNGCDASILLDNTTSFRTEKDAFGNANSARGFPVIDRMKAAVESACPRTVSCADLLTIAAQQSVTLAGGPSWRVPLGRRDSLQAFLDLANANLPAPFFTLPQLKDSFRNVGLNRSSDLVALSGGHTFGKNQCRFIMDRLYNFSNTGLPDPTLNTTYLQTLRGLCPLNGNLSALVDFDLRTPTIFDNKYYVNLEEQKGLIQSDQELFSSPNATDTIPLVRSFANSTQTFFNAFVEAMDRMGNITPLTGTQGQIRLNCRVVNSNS
Put plainly: Peroxidase-mediated activation of catechols (HPLC loss of peak area). The class given is biochemical. The conditions noted are these: for Relative Activation (% Control): relative to non-catechol control = 100; for Slope/Hrp: slope divided by HRP concentration (ug/ml): corrected disappearance. On the procedure:
Methods: catechols were dissolved in DMSO immediately prior to assay (10 mM). HRP (Sigma, P6782, 1000 units/mg), was dissolved in phosphate buffered saline (PBS) at a concentration of 40 ug/ml. Fresh hydrogen peroxide (50 mM) was prepared from a 30% w/w solution (Sigma, H1009). Incubations were carried out in a water bath maintained at 37° C. Exact volumes varied depending on the catechol, but typically they comprised 1.92 ml PBS, 20 μl DMSO, 20 μl hydrogen peroxide and 20 μl drug in a 4 ml amber glass vial. Prior to addition of the drug, the vial was pre-incubated for 10 min. The reaction was initiated by the addition of 20 μl HRP. Samples (100 μl) were then removed at intervals, added to 100 μl acetonitrile and placed on ice. At the end of the incubation, samples were centrifuged (12000 g, 1 min) to remove precipitated protein and the supernatants placed in polypropylene hplc vials for analysis. Control incubations containing no HRP were carried out in the same way.
HPLC was performed using a Waters 2695 Separations Module with a sample compartment maintained at 10° C., and a Waters 2996 Photodiode Array Detector. The column was an ACE C18, 3 μm particle size, 125×3 mm (Hichrom) maintained at 30° C. Compounds were eluted with varying proportions of A: 5 mM KH2PO4, 5 mM H3PO4, and B: 75% acetonitrile, 25% water at a flow rate of […], in order to achieve a similar starting peak area for each catechol. Occasionally, in order to achieve a better resolution of the products, the latter was replaced with 100% methanol. Spectral data was collected from 220 nm to 500 nm, sampling rate 2/sec, 1.2 nm resolution. Data was analysed using Waters Millennium software.
Results: The loss of peak area at 300 nm of the prodrug was plotted against time, and a straight line fitted to the data. Loss of peak area was used to approximate the relative rates of loss of each catechol. The slope of the line-of-best-fit was then divided by the HRP concentration to give a corrected disappearance (see Table 3).

The next assay has as its system MHEC-5T tumors. Put plainly: Reduction in tumor blood flow / functional tumor vessels (fluorescent beads). The class given is in vivo, mice. The conditions noted are these: for Blood Flow at 10 mg/kg (% vessel area of control): MHEC-5T tumor-bearing SCID mice, 24 hours after dosing. On the procedure: (§1) Catechols were dissolved in 50% DMSO (2 mg/kg) prior to intravenous (iv) administration (i.v.) to tumor-bearing mice. MHEC-5T tumors were established by subcutaneous injection of 0.5×10^6 cultured MHEC5-T cells (German Collection of Microorganisms and Cell Culture, Braunschweig, Germany) into the right flank of Fox Chase CB-17 severe combined immunodeficient (SCID) mice. Tumor grafts grew palpable within one week and reached the limited size (15×15 mm) within 10 days. Tumor bearing mice were injected intraperitoneally with saline control or various dosages of CA1P or CA4P after the transplanted tumor reached a size of 300 mm^3 (a size without development of necrosis). Twenty-four hours later they were injected with 0.25 ml of fluorescent FluoSphere beads (0.1 μm beads conjugated with blue fluorescent tag (F-8789, Molecular Probes, Eugene, Oreg.) and diluted 1:6 in physiological saline) in the tail vein, and sacrificed after 3 minutes. Tumors were then excised for cryosections. Cryosections of 8 μm thickness were directly examined under a fluorescent microscope. Functional blood vessels were indicated by blue fluorescence from injected microbeads. For quantification, three sections from three tumors treated in each group were examined and in each section, more than 70% of the area was automatically recorded with a microscopic digital camera at ×10 magnification. A computer program named Stage Pro (Media Cybernetics, Md.) was used to control the picture recording. Image analysis was performed with Image Plus software (Media Cybernetics, Md.). The results were expressed as vessel area per mm^2 in percentage of the control in Table 2.
as §1, with “The effect of CA1P on tumor blood flow was evaluated by quantifying the number of functional tumor vessels” for “Catechols were dissolved”, “treated murine tumors.” for “50% DMSO (2 mg/kg) prior to intravenous (iv) administration (i.v.) to tumor-bearing mice.”, “as in Example 4c.” for “by subcutaneous injection of 0.5×10^6 cultured MHEC5-T cells (German Collection of Microorganisms and Cell Culture, Braunschweig, Germany) into the right flank of Fox Chase CB-17 severe combined immunodeficient (SCID) mice. Tumor grafts grew palpable within one week and reached the limited size (15×15 mm) within 10 days.”, “MD)” for “Md.)”, “MD).” for “Md.).”, “control.” for “control in Table 2.”

For another assay, the system named is Purified tubulin. Put plainly: Inhibition of tubulin polymerization (turbidimetric, 350 nm). Format: biochemical. To be noted: purified tubulin 1 mg/ml, read-out: Tubulin Binding (uM IC50). The protocol: The method of Verdier-Pinard (1998, Molec. Pharmacol. 53, 62-76) was used to assay catechol compounds for inhibition of tubulin polymerization. Tubulin polymerization was followed turbidimetrically at 350 nm on an Agilent 8453 spectrophotometer equipped with a kinetics program, a jacketed cell holder, and two microprocessor-controlled water baths. Purified tubulin (1 mg/ml) was induced to polymerize in a monosodium glutamate/GTP solution by a jump in temperature. Absorbance was recorded every 10 seconds and the data was analyzed by a GraphPad Prism program.

Assay [2] has as its system murine adenocarcinoma CaNT. Put plainly: Tumor growth control in CaNT murine tumor model. Format: in vivo, mice. The conditions noted are these: single doses of 100, 200, and 400 mg/kg i.p., FIG. 5. On the procedure: The murine adenocarcinoma CaNT was grown subcutaneously on the back of 12- to 16-week old CBA/Gy fTO mice. Tumors were initiated by the injection of 0.05 ml of a crude tumor cell suspension prepared from a donor mouse. Animals were selected for treatment after 3 or 4 weeks, when tumors had reached a geometric mean diameter of 5 to 6.5 mm. CA1P and CA4P were dissolved in 0.9% saline at various concentrations and injected intraperitoneally into tumor bearing mice. Each treatment group consisted of between five and nine mice. A control treatment group was injected with 0.9% saline.

Assay [3] deals with murine adenocarcinoma CaNT. Put plainly: Functional vascular volume of tumor vessels (Hoechst 333342). Format: in vivo, mice. On the procedure: The effect of CA1P on tumor blood flow was evaluated by quantification of the functional volume of tumor vessels in treated murine tumors using a procedure previously described in detail and incorporated by reference herein (Smith K A, Br. J. Cancer, 57:247-253, 1988). The murine adenocarcinoma CaNT was grown subcutaneously on the back of 12- to 16-week old CBA/Gy fTO mice. Tumors were initiated by the injection of 0.05 ml of a crude tumor cell suspension prepared from a donor mouse. Animals were selected for treatment after 3 or 4 weeks, when tumors had reached a geometric mean diameter of 5 to 6.5 mm. CA1P and CA4P were dissolved in 0.9% saline at various concentrations and injected intraperitoneally into tumor bearing mice. Each treatment group consisted of between five and nine mice. A control treatment group was injected with 0.9% saline. At 24 hours post-injection, each mouse was injected intravenously with a 10 mg/kg dose of the fluorescent DNA-binding dye Hoechst 333342 and sacrificed 1 minute later. Tumors were immediately excised and bisected. Frozen tumor sections were cut at three levels and viewed under UV excitation where the fluorescent staining of perivascular cells identified perfused vessels. Vascular volumes were quantified based on a random point scoring system previously described and incorporated by reference herein (Chalkley H W, J. Natl Cancer Institute, 4: 47-53, 1943). All estimates were based on counting 100 fields from sections cut at each of the 3 different levels and the calculated vascular volumes were expressed as a percentage of the mean value for control tumors.

Usually IC50 stands for the midpoint of a concentration-inhibition curve.

The compound `COc1cc(/C=C\c2cc(-c3ccccc3)cc(O)c2O)cc(OC)c1OC` [ZSB-80, 4-Phenyl-6-[(Z)-2-(3,4,5-trimethoxyphenyl)vinyl]-1,2-dihydroxybenzene] showed an IC50 in the assay with tumor cells of 1.56 µM. Moreover, in assay [1], the “Relative Activation (% Control)” value stood at 0.017 % Control and the Slope/Hrp was −2158250.
`C=CCc1ccc(/C=C\c2cc(OC)c(OC)c(OC)c2)c(O)c1O` [ZSB-77, 3-Allyl-6-[(Z)-2-(3,4,5-trimethoxyphenyl)vinyl]-1,2-dihydroxybenzene]: in the assay with tumor cells (24 h), half-maximal inhibition (IC50) required 0.748 µM. In assay [1], the “Relative Activation (% Control)” value came out at 1.875 % Control and the Slope/Hrp is listed as −19783.
Take `C=CCOc1ccc(/C=C\c2cc(OC)c(OC)c(OC)c2)c(O)c1O`: inhibition in the assay with tumor cells (24 h) was half-maximal at 0.007 µM (IC50). The “Blood Flow at 10 mg/kg (% vessel area of control)” value with MHEC-5T tumors is on record as 60 % vessel area of control. The Slope/Hrp in assay [1] is on record as −16925.
On to `COc1cc(/C=C\c2cc(Br)cc(O)c2O)cc(OC)c1OC` [ZSB-74, 4-Bromo-6-[(Z)-2-(3,4,5-trimethoxyphenyl)vinyl]-1,2-dihydroxybenzene], for which the IC50 in the assay with Purified tubulin came to 2.1 µM; with tumor cells (24 h) it was 0.34 µM. The “Relative Activation (% Control)” value in assay [1] worked out at 0.203 % Control. For the same compound, the Slope/Hrp in assay [1] is reported as −182825.
Regarding `COc1cc(/C=C\c2ccc(F)c(O)c2O)cc(OC)c1OC`, the half-inhibitory concentration (IC50) with tumor cells (24 h) turned out to be 0.546 µM. In assay [1], the “Relative Activation (% Control)” value came to 0.006 % Control and the Slope/Hrp is −6675900.
`COc1cc(/C=C\c2ccc([N+](=O)[O-])c(O)c2O)cc(OC)c1OC` registered a half-maximal inhibitory concentration (IC50) in the assay with tumor cells (24 h) of 0.28 µM. Also, the Slope/Hrp in assay [1] was −1902300.
In the case of `CCc1ccc(/C=C\c2cc(OC)c(OC)c(OC)c2)c(O)c1O` [ZSB-76, 3-Ethyl-6-[(Z)-2-(3,4,5-trimethoxyphenyl)vinyl]-1,2-dihydroxybenzene], in the assay with tumor cells (24 h), half-maximal inhibition (IC50) was put at 0.542 µM. For the same compound, in assay [1], the “Relative Activation (% Control)” value was 6.743 % Control and the Slope/Hrp is −5502.
Regarding `CCOc1ccc(/C=C\c2cc(OC)c(OC)c(OC)c2)c(O)c1O` [ZSB-81], 0.094 µM corresponded to half-maximal inhibition in the assay with tumor cells (IC50).
In turn, `COc1cc(/C=C\c2cccc(OP(=O)([O-])[O-])c2OP(=O)([O-])[O-])cc(OC)c1OC.[Na+].[Na+].[Na+].[Na+]` [ZSB-36, 2′,3′diphosphate-3,4,5-trimethoxy-(Z)-stilbene, tetrasodium salt] returned an IC50 in the assay with tumor cells of 0.4 µM. In the assay with MHEC-5T tumors, the “Blood Flow at 10 mg/kg (% vessel area of control)” value was 94 % vessel area of control.
In the case of `COc1ccc(/C=C\c2cc(OC)c(OC)c(OC)c2)cc1OP(=O)([O-])[O-].[Na+].[Na+]` [CA4P, Combretastatin A-4 Disodium Phosphate Prodrug, reference compound], the “ED50 (vascular effect)” value in the assay on MHEC-5T tumors (functional vessel number per mm^2, i.p., 24 hr, MHEC-5T tumors) is 43 mg/kg. Besides, in the assay on MHEC-5T tumors (spatial distribution of blood vessel shutdown), the “blood flow in the central region of tumors” value is “blood flow reduction”. Further, in assay [2], the “effect on tumor growth” value is recorded as “no measurable effect on tumor growth”. For the same compound, the “effect on vascular volume” value in assay [3] (doses below 50 mg/kg i.p.) is given as “no significant effect”. Besides, the “dose required to produce an effect similar to that of 1 mg/kg of CA1P” value in assay [3] (functional vascular volume) worked out at 25 mg/kg.
Compound `COc1cc(/C=C\c2ccc(C)c(O)c2O)cc(OC)c1OC` [ZSB-75, 3-Methyl-6-[(Z)-2-(3,4,5-trimethoxyphenyl)vinyl]-1,2-dihydroxybenzene] returned an IC50 in the assay on tumor cells (24 h) of 0.9 µM. Further, in assay [1], the “Relative Activation (% Control)” value is given as 1.703 % Control and the Slope/Hrp was −21783.
Take `COc1cc(/C=C\c2cccc(O)c2O)cc(OC)c1OC` [ZSB-82, 6-[(Z)-2-(3,4,5-Trimethoxyphenyl)vinyl]-1,2-dihydroxybenzene]: in the assay on Purified tubulin, the IC50 came to 6.2 µM. In the assay with tumor cells (24 h), it took 0.143 µM to reach half-maximal inhibition (IC50). In addition, in assay [1], the “Relative Activation (% Control)” value is 0.029 % Control and the Slope/Hrp is given as −1269800.
Compound `COc1cc(/C=C\c2ccc(O)c(O)c2O)cc(OC)c1OC` showed an IC50 with tumor cells (24 h) of 0.069 µM. The “Blood Flow at 10 mg/kg (% vessel area of control)” value in the assay with MHEC-5T tumors was 26.7 % vessel area of control.

(Values after patent publication US8198302B2 (OXiGENE, Inc., priority 2004, dated 2012).)
